test: method code SF-AS, from DOI: 10.1016/0223-5234(92)90084-e; conditions: not given

| logP | SMILES |
| --- | --- |
| 4.04 | CCCCc1csc(-c2ccc(C(C)C(=O)O)cc2)n1 (centres undefined) |
| 3.65 | Cc1csc(-c2ccc(C(C)C(=O)O)cc2Cl)n1 (centres undefined) |
| 3.55 | Cc1cnc(-c2ccc(C(C)C(=O)O)cc2F)s1 (centres undefined) |
| 2.06 | CC(C(=O)O)c1ccc(-c2nccs2)c([N+](=O)[O-])c1 (centres undefined) |
| 3.36 | Cc1nc(-c2ccc(C(C)C(=O)O)cc2)sc1C (centres undefined) |
| 4.66 | CCCCc1csc(-c2ccc(C(C)C(=O)O)cc2F)n1 (centres undefined) |
| 3.39 | CC(C(=O)O)c1ccc(-c2nccs2)c(Cl)c1 (centres undefined) |
| 2.78 | COCc1csc(-c2ccc(C(C)C(=O)O)cc2)n1 (centres undefined) |
| 3.66 | Cc1cnc(-c2ccc(C(C)C(=O)O)cc2Cl)s1 (centres undefined) |
| 4.39 | CCc1cnc(-c2ccc(C(C)C(=O)O)cc2Cl)s1 (centres undefined) |

Continued, molecule first:

| SMILES | logP |
| --- | --- |
| Cc1nc(-c2ccc(C(C)C(=O)O)cc2F)sc1C (centres undefined) | 3.74 |
| CCCCc1csc(-c2ccc(C(C)C(=O)O)cc2Cl)n1 (centres undefined) | 4.84 |
| CC(C(=O)O)c1ccc(-c2nc(CO)cs2)cc1 (centres undefined) | 2.25 |
| CC(C(=O)O)c1ccc(-c2nc3c(s2)CCCC3)cc1 (centres undefined) | 4.41 |
| Cc1nc(-c2ccc(C(C)C(=O)O)cc2Cl)sc1C (centres undefined) | 3.94 |
| CCc1cnc(-c2ccc(C(C)C(=O)O)cc2F)s1 (centres undefined) | 4.1 |
| CC(C(=O)O)c1ccc(-c2nccs2)c(F)c1 (centres undefined) | 3.14 |
| COc1cc(C(C)C(=O)O)ccc1-c1nccs1 (centres undefined) | 2.47 |
| CCc1csc(-c2ccc(C(C)C(=O)O)cc2)n1 (centres undefined) | 3.75 |
| CCc1nc(-c2ccc(C(C)C(=O)O)cc2)sc1C (centres undefined) | 3.99 |
| Cc1csc(-c2ccc(C(C)C(=O)O)cc2F)n1 (centres undefined) | 3.52 |
| Cc1csc(-c2ccc(C(C)C(=O)O)cc2)n1 (centres undefined) | 3.03 |

same assay, conditions: pH 2.0

| logD | SMILES |
| --- | --- |
| 2.65 | CC(=O)c1csc(-c2ccc(C(C)C(=O)O)cc2)n1 (centres undefined) |
| 4.26 | CC(C)c1csc(-c2ccc(C(C)C(=O)O)cc2Cl)n1 (centres undefined) |
| 3.54 | C=Cc1csc(-c2ccc(C(C)C(=O)O)cc2)n1 (centres undefined) |

Further lines, the molecule ahead of its results:

| SMILES | logD |
| --- | --- |
| CC(C(=O)O)c1ccc(-c2nc(C(N)=O)cs2)cc1 (centres undefined) | 2.17 |
| CC(C(=O)O)c1ccc(-c2nc(-c3ccccc3)cs2)cc1 (centres undefined) | 4.81 |
| CNC(=O)c1csc(-c2ccc(C(C)C(=O)O)cc2)n1 (centres undefined) | 2.45 |
| CC(C)c1csc(-c2ccc(C(C)C(=O)O)cc2F)n1 (centres undefined) | 4.04 |
| CCc1csc(-c2ccc(C(C)C(=O)O)cc2F)n1 (centres undefined) | 3.58 |
| C=CCc1csc(-c2ccc(C(C)C(=O)O)cc2)n1 (centres undefined) | 3.4 |
| CC(C(=O)O)c1ccc(-c2nc(C(F)(F)F)cs2)cc1 (centres undefined) | 3.78 |
| CC(C(=O)O)c1ccc(-c2nc(C(=O)N(C)C)cs2)cc1 (centres undefined) | 2.15 |

same assay, conditions: pH 3.4

| logD | SMILES |
| --- | --- |
| 2.45 | CC(C(=O)O)c1ccc(-c2nccs2)c(N)c1 (centres undefined) |

Source: the SangsterLogP compilation
